Source: PubChem BioAssay (NCI)
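Cultured in 96-well plates, cells were exposed to test compound for 48 hours across five concentrations. At the GI50, growth is halved. The concentration for full growth arrest is given as TGI.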

How the values were obtained:
Test in all cases: NCI tumour cell line growth inhibition, 48 h
SW-620 colon = test system: SW-620 colon
SF-539 CNS = test system: SF-539 CNS
U251 CNS = test system: U251 CNS
SK-OV-3 ovarian = test system: SK-OV-3 ovarian
OVCAR-4 ovarian = test system: OVCAR-4 ovarian
SK-MEL-28 melanoma = test system: SK-MEL-28 melanoma
HCT-116 colon = test system: HCT-116 colon
ACHN renal = test system: ACHN renal
HOP-92 NSCLC = test system: HOP-92 NSCLC
UO-31 renal = test system: UO-31 renal

SMILES | TGI (SW-620 colon) | TGI (SF-539 CNS) | TGI (U251 CNS) | TGI (SK-OV-3 ovarian) | TGI (OVCAR-4 ovarian) | TGI (SK-MEL-28 melanoma) | TGI (HCT-116 colon) | TGI (ACHN renal) | TGI (HOP-92 NSCLC) | TGI (UO-31 renal) | GI50 (SW-620 colon) | GI50 (SF-539 CNS) | GI50 (U251 CNS) | GI50 (OVCAR-4 ovarian) | GI50 (SK-MEL-28 melanoma) | GI50 (HCT-116 colon) | GI50 (ACHN renal) | GI50 (HOP-92 NSCLC) | GI50 (UO-31 renal) | GI50 (SK-OV-3 ovarian)
CCC(C)C(=O)c1c(O)c(C/C=C(\C)CCC=C(C)C)c(O)c2c(C(O)CC)cc(=O)oc12 (stereo not drawn) | 14 µM | 7.43 µM | 9.67 µM | 10.8 µM | 10.5 µM | 5.57 µM | 2.21 µM | 8.38 µM | 5.47 µM | 6.95 µM |  |  |  |  |  |  |  |  |  | 
CCOC(=O)/C=C(\C)c1ccc(OC)cc1 | > 100 µM | > 100 µM | > 100 µM |  | > 100 µM | > 100 µM | > 100 µM | > 100 µM | > 100 µM | > 100 µM |  |  |  |  |  |  |  |  |  | 
COc1ccc(NC(=O)/C(=C/c2ccc(N(CCC#N)CCC#N)cc2)NC(=O)c2cc([N+](=O)[O-])ccc2Cl)cc1 | > 100 µM | 50.8 µM | > 100 µM | > 100 µM | > 100 µM | > 100 µM | > 100 µM | 59.5 µM | > 100 µM | > 100 µM |  |  |  |  |  |  |  |  |  | 
CC(C)C[P+](c1ccccc1)(c1ccccc1)c1ccccc1 | > 100 µM | > 100 µM | > 100 µM | 87.4 µM | > 100 µM | > 100 µM | > 100 µM | > 100 µM | 26.3 µM | > 100 µM |  |  |  |  |  |  |  |  |  | 
COc1ccc(NC(=O)/C(CC2=Nc3ccc([N+](=O)[O-])cc3NC2O)=N\NC(=O)C[N+](C)(C)C)c(OC)c1 (stereo not drawn) | > 100 µM | > 100 µM | > 100 µM | > 100 µM | > 100 µM | > 100 µM | > 100 µM | > 100 µM | > 100 µM | > 100 µM |  |  |  |  |  |  |  |  |  | 
CC1(C)N=C(N)N=C(N)N1c1cccc(OCCOc2ccc([N+](=O)[O-])cc2)c1 | > 100 µM | > 100 µM | > 100 µM | > 100 µM | > 100 µM | > 100 µM | > 100 µM | > 100 µM | > 100 µM |  |  |  |  |  |  |  |  |  |  | 
N#Cc1c(NC(=S)NC(=O)c2ccccc2)nc2c(c1-c1ccccc1)CCCC2 | > 100 µM |  | > 100 µM | 86.3 µM | > 100 µM | > 100 µM | > 100 µM |  |  | > 100 µM |  |  |  |  |  |  |  |  |  | 
COc1cc(C2c3cc4c(cc3[C@@H](Nc3cccc(C(C)=O)c3)C3COC(=O)[C@H]23)OCO4)cc(OC)c1O (stereo partly drawn) | > 38.2 µM | 1.24 µM | 9.97 µM | 5.28 µM | > 100 µM | 50.6 µM | 7.81 µM |  | 14.8 µM | 6.89 µM |  |  |  |  |  |  |  |  |  | 
ClCc1c(Cl)c(Cl)c(Cl)c(CCl)c1Cl | 3.12 µM | 13.5 µM | 3.08 µM |  | 2.98 µM | 3.96 µM | 3.17 µM | 3 µM | 3.15 µM | 3.12 µM | 1.71 µM | 3.72 µM | 1.71 µM | 1.62 µM | 1.95 µM | 1.71 µM | 1.64 µM | 1.55 µM | 1.63 µM | 
NCc1ccc(C(=O)O)cc1 | > 100 µM |  | > 100 µM |  | > 100 µM | > 100 µM | > 100 µM | > 100 µM | > 100 µM | > 100 µM |  |  |  |  |  |  |  |  |  | 
CCO/N=[N+](\[O-])N(CC)CC | > 100 µM | > 100 µM |  | > 100 µM |  | > 100 µM | > 100 µM | > 100 µM | > 100 µM | > 100 µM |  |  |  |  |  |  |  |  |  | 
COc1ccc(-c2cc(N3CCN(c4ccccc4)CC3)c(C#N)c(=O)o2)cc1 | > 100 µM | 41.5 µM | > 100 µM |  | 15 µM | 77.6 µM | > 100 µM | > 100 µM | > 100 µM | 44.8 µM |  |  |  |  |  |  |  |  |  | 
Cc1nc2ccccc2c(=O)[nH]1 | > 100 µM | > 100 µM | > 100 µM | > 100 µM | > 100 µM | > 100 µM | > 100 µM | > 100 µM | > 100 µM | > 100 µM |  |  |  |  |  |  |  |  |  | 
C#CC[C@@H]1C[C@]2(C)[C@H]3CC=C4[C@H]5CC(C)(C)CC[C@]5(C(=O)NCCCCN)CC[C@@]4(C)[C@]3(C)CC[C@H]2C(C)(C)[C@H]1OC(C)=O | 3.39 µM | 3.1 µM | 3.21 µM | 3.18 µM | 3.23 µM | 3.17 µM |  | 3.11 µM | 2.81 µM | 2.71 µM | 1.71 µM | 1.68 µM | 1.69 µM | 1.71 µM | 1.74 µM |  | 1.73 µM | 1.33 µM | 1.41 µM | 1.72 µM
Cn1c(-c2ccc(/C=N\N3CCN(/N=C/c4ccc(-c5c[n+]6ccccc6n5C)cc4)CC3)cc2)c[n+]2ccccc12 | > 100 µM | > 100 µM | > 100 µM | > 100 µM | > 100 µM |  | > 100 µM | > 100 µM | 84.6 µM | > 100 µM |  |  |  |  |  |  |  |  |  | 
CC[n+]1c(/C=C/c2ccc(N(CCCl)CCCl)cc2)ccc2cc(NC(=O)/C=C/c3ccccc3)ccc21 | 0.67 µM | 2.03 µM | 0.619 µM | 2.81 µM |  | 2.03 µM | 1.34 µM | > 56.6 µM | 1.07 µM | 52.2 µM |  |  |  |  |  |  |  |  |  | 
COc1ccc(CC(C)N)cc1 (stereo not drawn) | > 100 µM | > 100 µM | > 100 µM | > 100 µM | > 100 µM | > 100 µM | > 100 µM | > 100 µM | > 100 µM | > 100 µM |  |  |  |  |  |  |  |  |  | 
Brc1ccccc1-c1ncc(-c2ccccc2)o1 | > 100 µM | 77.1 µM | 44.2 µM | > 100 µM | > 100 µM | > 100 µM | > 100 µM | > 100 µM | 46.3 µM | > 100 µM |  |  |  |  |  |  |  |  |  | 
